# Target: T1, 5-hydroxytryptamine receptor 1A (Rattus norvegicus, UniProt P19327)
# T1 sequence (P19327 whole entry): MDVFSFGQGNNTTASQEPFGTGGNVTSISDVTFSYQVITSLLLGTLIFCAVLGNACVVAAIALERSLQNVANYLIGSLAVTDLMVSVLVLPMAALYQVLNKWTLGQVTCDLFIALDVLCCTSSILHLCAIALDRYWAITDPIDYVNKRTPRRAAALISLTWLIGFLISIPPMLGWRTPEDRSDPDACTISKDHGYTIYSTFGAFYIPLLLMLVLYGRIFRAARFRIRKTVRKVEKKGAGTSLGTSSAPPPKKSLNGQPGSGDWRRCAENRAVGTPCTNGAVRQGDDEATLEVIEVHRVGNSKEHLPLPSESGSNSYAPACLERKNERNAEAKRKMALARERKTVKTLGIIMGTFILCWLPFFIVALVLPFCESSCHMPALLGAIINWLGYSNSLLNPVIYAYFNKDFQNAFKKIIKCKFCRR
# Description: Binding affinity towards 5-hydroxytryptamine 1A receptor using [3H]8-OH-DPAT as radioligand.
row,Compound,Ki [µM]
1,CC(=O)c1ccc2[nH]cc(C3=CCN(C)CC3)c2c1,0.023
2,CN1CC=C(c2c[nH]c3ccc(-c4ccccc4)cc23)CC1,0.055
3,CN1CC=C(c2c[nH]c3ccc(-c4cccnc4)cc23)CC1,0.2
4,CN1CC=C(c2c[nH]c3ccc(C4OCCO4)cc23)CC1,0.0879
5,CN1CC=C(c2c[nH]c3ccc(-c4ccncc4)cc23)CC1,0.0741
6,CN1CC=C(c2c[nH]c3ccc(C(C)(C)O)cc23)CC1,0.187
7,CN1CC=C(c2c[nH]c3ccc([Si](C)(C)C)cc23)CC1,0.165
8,CN1CCC(c2c[nH]c3ccccc23)CC1,0.513
9,CN1CC=C(c2c[nH]c3ccc(C#N)cc23)CC1,0.055
10,CN1CC=C(c2c[nH]c3ccc(-c4ccc(F)cc4)cc23)CC1,0.069
11,CCN1CC=C(c2c[nH]c3ccc(C(=O)OC)cc23)CC1,0.384
12,CN1CC=C(c2c[nH]c3ccc(Cl)cc23)CC1,0.189
13,Cc1ccc2[nH]cc(C3=CCN(C)CC3)c2c1,0.146
14,O=[N+]([O-])c1ccc2[nH]cc(C3=CCNCC3)c2c1,0.0646
15,CN1CC=C(c2c[nH]c3ccc(-c4ccsc4)cc23)CC1,0.0251
16,CSc1ccc2[nH]cc(C3=CCN(C)CC3)c2c1,0.023
17,CN1CC=C(c2c[nH]c3ccc(S(C)(=O)=O)cc23)CC1,0.188
18,CCCN1CC=C(c2c[nH]c3ccc(OC)cc23)CC1,0.363
19,CN1CC=C(c2c[nH]c3ccc(C(N)=O)cc23)CC1,0.0053
20,CCCN1CC=C(c2c[nH]c3ccc(C#N)cc23)CC1,0.303
21,CN1CC=C(c2c[nH]c3ccc(CO)cc23)CC1,0.126
22,COc1ccc2[nH]c(C)c(C3=CCN(C)CC3)c2c1,0.345
23,CN1CC=C(c2cn(Cc3ccccc3)c3ccccc23)CC1,10

row,Compound,Ki [µM]
1,CN1CC=C(c2c[nH]c3ccc(Br)cc23)CC1,0.011
2,C1=C(c2c[nH]c3ccccc23)CCN(Cc2ccccc2)C1,0.923
3,COC(=O)c1ccc2[nH]cc(C3=CCN(C)CC3)c2c1,0.0194
4,CC(O)c1ccc2[nH]cc(C3=CCN(C)CC3)c2c1 (stereo unspecified),0.221
5,COc1ccc2[nH]cc(C3CCN(C)CC3)c2c1,0.138
6,CN1CCC(c2c[nH]c3ccccc23)(c2c[nH]c3ccccc23)CC1,0.55
7,CN1CC=C(c2c[nH]c3ccc(N4C(=O)c5ccccc5C4=O)cc23)CC1,0.377
8,COc1ccc2[nH]cc(C3=CCN(C)CC3)c2c1,0.0211
9,CN1CC=C(c2c[nH]c3ccc(NS(C)(=O)=O)cc23)CC1,0.692
10,CN1CC=C(c2c[nH]c3ccccc23)CC1,0.146
11,CCOC(=O)c1ccc2[nH]cc(C3=CCN(C)CC3)c2c1,0.0361
12,CCCN1CC=C(c2c[nH]c3ccc(C(N)=O)cc23)CC1,0.017
13,CN1CC=C(c2c[nH]c3ccc([S+](C)[O-])cc23)CC1 (stereo unspecified),0.105
14,CN1CC=C(c2c[nH]c3ccc(OCc4ccccc4)cc23)CC1,0.111
15,CC(=O)Oc1ccc2[nH]cc(C3=CCN(C)CC3)c2c1,0.0813
16,CN1CC=C(c2c[nH]c3ccc(-c4cccs4)cc23)CC1,0.019
17,C1=C(c2c[nH]c3ccccc23)CCNC1,0.189
18,CN1CC=C(c2c[nH]c3ccc(-c4ccccn4)cc23)CC1,0.0251
19,CCCN1CC=C(c2c[nH]c3ccc(NC(C)=O)cc23)CC1,0.037
20,CN1CC=C(c2c[nH]c3ccc(O)cc23)CC1,0.0617
21,CN1CC=C(c2c[nH]c3ccc([N+](=O)[O-])cc23)CC1,0.0211
22,CC(=O)Nc1ccc2[nH]cc(C3=CCN(C)CC3)c2c1,0.0776
23,CCCN1CC=C(c2c[nH]c3ccccc23)CC1,0.556

# From ChEMBL document CHEMBL1126551, “Three-dimensional quantitative structure-activity relationships of 5-HT receptor binding data for tetrahydropyridinylindole derivatives: a comparison of the Hansch and CoMFA methods” (J Med Chem, 1993)
